Legend:
Format in all cases: in vivo
[1] = test system: number of drinking actions despite electric shock; assay: Anxiolytic activity, conflict situation model (drinking versus electric shock); conditions: number of drinking actions despite electric shock, 30 min before test
Experimental: Anxiolytic activity was assessed in a model of conflict situation based on the conflict of two reflexes (drinking and defensive) when drinking water from a water fountain. Anxiolytic activity was assessed by the number of drinking actions despite electric shock.
(§1) Diazepam drug was used as the reference drug. All test compounds and the reference drug diazepam were administered in a suspension with Tween-80 in 5 mg/kg dose 30 min before the start of experiments.

[2] = test system: general movement activity of animals; assay: General movement activity, open field test; conditions: for General movement activity (5 mg/kg): open field 3 min, sum of rearings, transitions, explored holes, 30 min before test
Experimental: General movement activity was assessed in an open field test. While the animals were in the open field (3 min), the number of rearings (vertical movement activity), transitions between squares (horizontal movement activity) and the number of explored holes (exploratory activity) were registered. The sum of these values is general movement activity.
as §1

[3] = test system: writhes induced by intraperitoneal acetic acid; assay: Analgesic activity, acetic acid-induced writhing test (peripheral pain model); conditions: for Writhing inhibition, % of control in 1 mg/kg dose: 1 mg/kg intraperitoneally, 40 min before 0.75% acetic acid; for ED50: ip; for ED50 / ED50, analgesic activity in writhing test: intraperitoneal, Prozorovsky method
Experimental: Assessment of analgesic activity was performed in a model of peripheral pain based on chemical pain induced by intraperitoneal administration of acetic acid, leading to involuntary contractions of abdominal muscles, termed “writhes”, accompanied by hind leg extension and spine arching. The writhes were induced by 0.75% solution of acetic acid, which was administered intraperitoneally 40 min after intraperitoneal administration of test compounds in 0.001-5 mg/kg dose range. […] Analgesic activity was assessed by the ability of the compounds to reduce the number of writhes in test group compared to control group, and indicated as percentage using the following formula: AA=(Wc−Wt/Wc)×100%,
where AA—analgesic activity in %;
Wc—average number of writhes in control group;
Wt—average number of writhes in test group
Test compounds were studied in comparison with the reference drug sodium diclofenac in 10 mg/kg dose. ED50 was calculated using Prozorovsky method.

[4] = test system: food consumption by rats; assay: Action on appetite, Anorexia method (liquid food consumption); conditions: for Amount of consumed liquid food during 30 min in ml / Food consumption, % of control: dose 0,1 mg/kg intraperitoneally; for Reduction in appetite and food consumption compared to control: Table 6 dose 0,1 mg/kg
Experimental: Studies of pharmacological activity of 3-arylamino-1,3-dihydro-2H-benzo[e][1,4]diazepin-2-ones, namely, their action of appetite, assessment of antihypoxic and antidepressant activity was performed in white male rats with body mass 150-180 g and male mice with body mass 18-22 g. The animals were kept on a standard laboratory diet and natural lighting. Animals of control group were given a water-Tween suspension. Test compounds were administered in a suspension with Tween-80 Reference drugs were the hormone leptin, in 0.0002 mg/kg dose, and a well-known antidepressant amitriptyline (solution for injections in 1 ml vials. Test compounds and the water-Tween suspension were administered in a dose of 0.2 ml/100 g of rat body mass.
The action of the compounds on rat appetite was studied using «norexia» method. For 2 weeks in an experimental equipment the rats were conditioned to consume liquid food. Then a water-Tween suspension of test articles was administered intraperitoneally to conditioned animals one day before the experiment. After 40 minutes the animals were allowed access to liquid food and the amount of consumed food (in ml) of every rat was registered every 30 minutes for 3 hours. The next day after 2 hours of deprivation the rats in control group were administered a water-Tween suspension intraperitoneally, while the test group was administered the test articles. After 40 minutes the animals were allowed access to liquid food and the amount of consumed food (in ml) of every rat was registered every 30 minutes for 3 hours. Then all food consumption values for each rat were summed and compared to control values. The control group has consumed on average 7 ml of liquid food per 30 minutes. The effect was calculated in percentage compared to control.

SMILES	Anxiolytic activity assessed using conflict situation method (5 mg/kg) [1]	General movement activity (5 mg/kg) [2]	Amount of consumed liquid food during 30 min in ml [4]	Food consumption, % of control [4] [%]	also measured
COC(=O)CN1C(=O)C(Nc2ccc(C(C)=O)cc2)N=C(c2ccccc2F)c2cc(Br)ccc21 (stereo not drawn) [Compound 91]	4.9 ± 2.2	25.2 ± 2.1	–	–	Writhing inhibition, % of control in 1 mg/kg dose ([3]; compounds Ib): 62%
O=C1Nc2ccc(OC(F)(F)F)cc2C(c2ccccc2)=NC1Nc1cccc(Cl)c1 (stereo not drawn) [Compound 195]	–	–	5,7 ± 2,2 ml	77	–
O=C1Nc2ccc([N+](=O)[O-])cc2C(c2ccccc2Cl)=NC1Nc1ccc(Br)cc1 (stereo not drawn) [Compound 322]	–	–	7,8 ± 2,7 ml	105	–
COC(=O)CN1C(=O)C(Nc2ccc([N+](=O)[O-])cc2)N=C(c2ccccc2)c2cc(OC(F)(F)F)ccc21 (stereo not drawn) [Compound 229]	38.7 ± 2.6	19.0 ± 1.0	–	–	Writhing inhibition, % of control in 1 mg/kg dose ([3]; compounds Ib): 59%
COc1ccc2c(c1)c(CC(=O)O)c(C)n2C(=O)c1ccc(Cl)cc1 [indomethacin, reference compound]	–	–	–	–	ED50 [3]: 1.5 ± 0.26 mg/kg
O=C1Nc2ccc(OC(F)(F)F)cc2C(c2ccccc2)=NC1Nc1ccc(Cl)cc1 (stereo not drawn) [Compound 196]	–	–	6,5 ± 3,2 ml	88	–
COC(=O)CN1C(=O)C(Nc2cccc(C(C)=O)c2)N=C(c2ccccc2F)c2cc(Br)ccc21 (stereo not drawn) [Compound 90]	8.2 ± 3.4	24.5 ± 2.3	–	–	Writhing inhibition, % of control in 1 mg/kg dose ([3]; compounds Ib): 68%
CC(=O)c1cccc(NC2N=C(c3ccccc3F)c3cc([N+](=O)[O-])ccc3NC2=O)c1 (stereo not drawn) [Compound 348]	–	–	21,4 ± 4,9 ml	284	–
O=C1Nc2ccc(Cl)cc2C(c2ccccc2)=NC1Nc1cccc(Br)c1 (stereo not drawn) [Compound 162]	–	–	5,1 ± 2,2 ml	69	–
COC(=O)CN1C(=O)C(Nc2cccc(F)c2)N=C(c2ccccc2Cl)c2cc([N+](=O)[O-])ccc21 (stereo not drawn) [Compound 318]	19.2 ± 3.4	28.5 ± 2.3	–	–	Writhing inhibition, % of control in 1 mg/kg dose ([3]; compounds Ib): 65%
O=C1Nc2ccc(Cl)cc2C(c2ccccc2)=NC1Nc1ccccc1Br (stereo not drawn) [Compound 161]	–	–	5,5 ± 2,4 ml	74	–
COC(=O)CN1C(=O)C(Nc2ccccc2Br)N=C(c2ccccc2Cl)c2cc([N+](=O)[O-])ccc21 (stereo not drawn) [Compound 326]	45.1 ± 2.6	22.0 ± 2.0	–	–	Writhing inhibition, % of control in 1 mg/kg dose ([3]; compounds Ib): 62%
O=C1Nc2ccc([N+](=O)[O-])cc2C(c2ccccc2)=NC1Nc1cccc(Cl)c1 (stereo not drawn) [Compound 249]	–	–	5,1 ± 2,2 ml	69	–
COC(=O)CN1C(=O)C(Nc2ccccc2F)N=C(c2ccccc2Cl)c2cc([N+](=O)[O-])ccc21 (stereo not drawn) [Compound 317]	33.4 ± 3.2	47.0 ± 3.7	–	–	Sedative properties (words, from general movement activity versus control) ([2]; 5 mg/kg): don't have sedative properties; Writhing inhibition, % of control in 1 mg/kg dose ([3]; compounds Ib): 63%
CC(=O)c1ccc(NC2N=C(c3ccccc3F)c3cc([N+](=O)[O-])ccc3NC2=O)cc1 (stereo not drawn) [Compound 349]	–	–	14 ± 1,8 ml	189	–
COC(=O)CN1C(=O)C(Nc2cccc([N+](=O)[O-])c2)N=C(c2ccccc2)c2cc([N+](=O)[O-])ccc21 (stereo not drawn) [Compound 282]	44.7 ± 3.9	19.0 ± 2.4	–	–	Writhing inhibition, % of control in 1 mg/kg dose ([3]; compounds Ib): 59%

SMILES	Anxiolytic activity assessed using conflict situation method (5 mg/kg) [1]	General movement activity (5 mg/kg) [2]	Amount of consumed liquid food during 30 min in ml [4]	Food consumption, % of control [4] [%]	also measured
O=C1Nc2ccc([N+](=O)[O-])cc2C(c2ccccc2Cl)=NC1Nc1ccccc1Br (stereo not drawn) [Compound 320]	–	–	6,5 ± 3,4 ml	88	–
O=C1Nc2ccc([N+](=O)[O-])cc2C(c2ccccc2Cl)=NC1Nc1cccc(Br)c1 (stereo not drawn) [Compound 321]	–	–	6,1 ± 3,2 ml	82	–
CCCOC1N=C(c2ccccc2)c2cc(Cl)ccc2N(CC(=O)OC)C1=O (stereo not drawn) [Compound 22]	–	–	–	–	Writhing inhibition, % of control in 1 mg/kg dose ([3]; compounds Ia): 70%; ED50, analgesic activity in writhing test [3]: 0.08 ± 0.02 mg/kg
O=C1Nc2ccc(Cl)cc2C(c2ccccc2)=NC1Nc1ccccc1F (stereo not drawn) [Compound 152]	–	–	3,5 ± 1,3 ml	47	–
COC(=O)CN1C(=O)C(Nc2ccc(Cl)cc2)N=C(c2ccccc2F)c2cc([N+](=O)[O-])ccc21 (stereo not drawn) [Compound 364]	26.2 ± 3.4	34.5 ± 3.3	–	–	Writhing inhibition, % of control in 1 mg/kg dose ([3]; compounds Ib): 64%
COC(=O)CN1C(=O)C(Nc2ccc(C(F)(F)F)cc2)N=C(c2ccccc2F)c2cc([N+](=O)[O-])ccc21 (stereo not drawn) [Compound 400]	32.2 ± 3.3	36.5 ± 3.3	–	–	Writhing inhibition, % of control in 1 mg/kg dose ([3]; compounds Ib): 60%
CCOC1N=C(c2ccccc2)c2cc(Cl)ccc2N(CC(=O)OC)C1=O (stereo not drawn) [Compound 21]	–	–	–	–	Writhing inhibition, % of control in 1 mg/kg dose ([3]; compounds Ia): 62%; ED50, analgesic activity in writhing test [3]: 0.29 ± 0.025 mg/kg
O=C(O)Cc1ccccc1Nc1c(Cl)cccc1Cl [sodium diclofenac, reference compound]	–	–	–	–	ED50 [3]: 10 ± 1.8 mg/kg
CC(=O)c1ccccc1NC1N=C(c2ccccc2F)c2cc([N+](=O)[O-])ccc2NC1=O (stereo not drawn) [Compound 347]	–	–	6,5 ± 2,7 ml	105	–
O=C1Nc2ccc([N+](=O)[O-])cc2C(c2ccccc2)=NC1Nc1ccccc1Cl (stereo not drawn) [Compound 248]	–	–	3,1 ± 2,4 ml	41	Reduction in appetite and food consumption compared to control [4]: 41%
O=C1Nc2ccc([N+](=O)[O-])cc2C(c2ccccc2F)=NC1Nc1ccccc1Cl (stereo not drawn) [Compound 356]	–	–	2,9 ± 2,1 ml	39	Reduction in appetite and food consumption compared to control [4]: 39%
O=C1Nc2ccc([N+](=O)[O-])cc2C(c2ccccc2F)=NC1Nc1ccc(Cl)cc1 (stereo not drawn) [Compound 358]	–	–	6,7 ± 3,2 ml	90	Effect on appetite [4]: hyperphagic effect
CCCCOC1N=C(c2ccccc2)c2cc(Cl)ccc2N(CC(=O)OC)C1=O (stereo not drawn) [Compound 23]	–	–	–	–	Writhing inhibition, % of control in 1 mg/kg dose ([3]; compounds Ia): 52%
CN1C(=O)CN=C(c2ccccc2)c2cc(Cl)ccc21 [Diazepam, reference compound]	120.0 ± 4.9	32.5 ± 2.8	–	–	–
O=C1Nc2ccc(Cl)cc2C(c2ccccc2)=NC1Nc1ccc(Br)cc1 (stereo not drawn) [Compound 163]	–	–	6,8 ± 2,7 ml	92	–
